Laboratory results: PMC12867150, “A fungi-derived cyclic peptide enhances Th9-mediated antitumor immunity by targeting ZAP70 and SREBP1” (The Journal of Clinical Investigation, 2025)
“And” between values parts separate entries of the source, which are not always exact repeats. Equal values may be shown once. Where a name gives a salt, the structure may show the parent alone.

Experiments:
[1] = tested on: CD69 on Th9 cells; assay: Flow cytometry of CD69 on Th9 cells in vitro (Figure 5J, 7D); type: cell-based, mouse; parameters: CD69 expression in Th9 cells: unit not given here; conditions: for CD69 expression in Th9 cells: Figure 7D, one per column (n = 4); for CD69 expression in Th9 cells / CD69 (flow cytometric quantification): individual replicates; for CD69 (flow cytometric quantification): Figure 5J, (n = 5)
Description: Naive CD4^+ T cells were isolated from the spleens of C57BL/6J or CD45.1^+ OT-II mice using the MojoSort Mouse CD4 Naive T Cell Isolation Kit (BioLegend, catalog 480040), following the manufacturer’s protocol. Purified cells were cultured in RPMI-1640 medium supplemented with 10% FBS, 1% penicillin-streptomycin, and 0.1% β-mercaptoethanol (Gibco, catalog 21985023).
T cell polarization was initiated under plate-bound anti-CD3 (2 μg/mL, clone 17A2, BioXCell, catalog BE0002) and soluble anti-CD28 (1 μg/mL, clone 37.51, BioXCell, catalog BE0015-1) stimulation, with the addition of cytokines and neutralizing antibodies specific to each subset. For Th9 cells, these included IL-4 (10 ng/mL, Peprotech, catalog 400-04), TGF-β (1 ng/mL, EPOTO Biotech, catalog HF-2021), anti–IL-12 (5 μg/mL, clone C17.8, BioXCell, catalog BE0051), and anti–IFN-γ (10 μg/mL, clone XMG1.2, BioXCell, catalog BE0055); for Th1 cells, these included IL-12 (10 ng/mL, GenScript, catalog Z03211-50) and anti–IL-4 (5 μg/mL, clone 11B11, BioXCell, catalog BE0045); for Th2 cells, these included IL-4 (50 ng/mL), anti–IFN-γ (20 μg /mL), anti–IL-12 (5 μg/mL), Th17 cells: IL-6 (20 ng/mL, EPOTO Biotech, catalog MF-1006), TGF-β (1 ng/mL), IL-1β (10 ng/mL, Peprotech, catalog AF-211-11B), anti–IFN-γ (10 μg/mL), anti–IL-12 (5 μg/mL), and anti–IL-4 (5 μg/mL); and for Tregs, these included TGF-β (3 ng/mL). After 3 days of initial culture, cells were either collected for downstream assays or continued in extended culture with refreshed cytokines to maintain lineage commitment.
(§1) Details regarding staining panels (human and mouse), reagents (including clones and catalog numbers), acquisition settings, compensation/controls, and analysis procedures are provided in Supplemental Methods.
BioLegend, Cat. No. 422301 or Mouse TruStain FcX™, BioLegend, Cat. No. 101319) for 10 minutes at 4°C. For surface marker detection, cells were stained with fluorochrome-conjugated monoclonal antibodies in 96-well V-bottom plates and incubated on ice for 30 minutes. After staining, cells were washed twice and resuspended in FACS buffer for analysis.
Prior to intracellular cytokine staining, cells were restimulated for 4 hours with PMA (Absin, Cat. No. abs9107), ionomycin (Sigma-Aldrich, Cat. No. I0634), and brefeldin A (MedChemExpress, Cat. No. HY-16592). For intracellular cytokine staining, cells were first surface-stained as described above, then fixed and permeabilized using the BD Cytofix/Cytoperm™ kit (BD Biosciences, Cat. No. 554714) according to the manufacturer ’s protocol. Intracellular proteins were stained with directly conjugated antibodies targeting IL-9, IL-17a, IL-4, IFN-γ, TNF-α, FOXP3, p-ZAP70, Perforin, and […]
Antibodies used for mouse samples included those against IL-9 (PE, clone RM9A4, Biolegend, Cat. No. 514104), IFN-γ (PE, clone XMG1.2, Biolegend, Cat. No.
Cat. No. 103138), CD4 (APC/Cy7, clone E-AB-F1353UJ, Elabscience, Cat. No.
AF18028), CD8α (PerCP/Cy5.5, clone E-AB-F1104UJ, Elabscience, Cat. No. […]
clone E-AB-F1187UH, Elabscience, Cat. No. AF19854), TNF-α (BV421, clone MP6-XT22, Biolegend, Cat. No. 506328), FOXP3 (PE, clone FJK-16s, eBioscience, Cat. No.
Perforin (APC, clone S16009A, Biolegend, Cat. No. 154303) and Granzyme B (APC, […]
clone QA16A02, Biolegend, Cat. No. 372203). […]

[2] = tested on: mitochondria of Th9 cells; assay: Flow cytometry with MitoTracker Deep Red (Figure 4M, 5L, 7F, 7J); type: cell-based, mouse; conditions: for mitochondrial membrane potential measured by MitoTracker staining: Figure 7F; for mitochondrial membrane potential measured by MitoTracker staining / Mito tracker (flow cytometric quantification): (n = 3); for Mito tracker (flow cytometric quantification): Figure 5L; for mitochondrial membrane potential in Th9 cells: Figure 7J, one per column (n = 4)
Description: […] Cells were incubated with the respective dyes, washed, and subjected to flow cytometry or fluorescence microscopy analysis. For ultrastructural assessment, mitochondrial number and diameter were quantified from high-resolution transmission electron microscopy (TEM) images using ImageJ software.

[3] = tested on: human Th9 cells; assay: Human Th9 differentiation, IL-9 by flow cytometry (Figure 8A-B, S9A); type: cell-based; conditions: for intracellular IL-9 expression in human Th9 cells: flow cytometry, Supplemental Figure 9A; for IL-9 production in human CD4⁺ T cells (flow cytometric analysis): Figure 8B, Th9-polarizing conditions, individual replicates, one per column (n = 4)
Description: Naive human CD4^+ T cells were isolated from PBMCs obtained from healthy donors using the EasySep Human Naive CD4^+ T Cell Isolation Kit II ([…] Technologies, catalog 17555), according to the manufacturer’s protocol. Isolated T cells were cultured in OptiVitro T Cell Medium SF (Excell Bio, catalog TE000-N022) supplemented with recombinant human IL-2 (100 U/mL, Novoprotein, catalog C013). T cell activation was achieved using plate-bound anti-CD3 (5 μg/mL) and soluble anti-CD28 antibodies (2 μg/mL).
For Th9 polarization, cultures were supplemented with IL-4 (10 ng/mL, PeproTech, catalog AF-200-04), TGF-β (1 ng/mL), and neutralizing anti–IFN-γ monoclonal antibody (10 μg/mL, clone B27, BioXcell, catalog BE0245). After 3 days of initial culture, cells were either collected for downstream assays or continued in extended culture with refreshed cytokines to maintain lineage commitment without antibodies. Th9 cells were collected at days 4, 5, and 6 for subsequent in vitro assays. For adoptive transfer studies, day 4–cultured Th9 cells were washed and prepared for intravenous injection.
as §1
MH9A4, Biolegend, Cat. No. 507605, PE/Cy7, clone MH9A4, Biolegend, Cat. No. […]
clone Mab11, Biolegend, Cat. No. 502908), Perforin (APC, clone dG9, Biolegend, Cat.
Flow cytometric acquisition was performed using a BD Fortessa or Cytek Aurora cytometer. Data were analyzed with FlowJo software (v10.8.1 or newer). Fluorescence compensation, isotype-matched controls, and fluorescence-minus-one (FMO) controls were applied as appropriate for multicolor panel validation. […]

[4] = single agent, individual replicates

Molecule: CCCc1cc(-c2nc(-c3ccc(C)cc3)cs2)ccn1 [fatostatin, fatostatin hydrobromide, reference compound]
- CD69 expression in Th9 cells ([1]; single agent, 10 µM): 39.9 and 41.1 and 41.2 and 39.2
- mitochondrial membrane potential measured by MitoTracker staining [2, 4]: 1160 and 1151 and 1173
- intracellular IL-9 expression in human Th9 cells ([3]; replicate 1): 23.3%
- intracellular IL-9 expression in human Th9 cells ([3]; replicate 2): 24.1%
- intracellular IL-9 expression in human Th9 cells ([3]; replicate 3): 23.7%
- intracellular IL-9 expression in human Th9 cells ([3]; replicate 4): 23.5%
- IL-9 production, human EpA-Th9 ([3]; with fatostatin, result in words): further augmented

Molecule: anteiso-C15 Leu7 surfactin [EpA]
- CD69 expression ([1]; EpA + fatostatin, result in words): elevated in the combination group
- CD69 (flow cytometric quantification) ([1]; EpA + ERKin combination): 27.9 and 23.5 and 24 and 26.9 and 24.1
- CD69 (flow cytometric quantification) ([1]; EpA + MEKin combination): 20.8 and 22.9 and 21.2 and 18.2 and 18.1
- CD69 (flow cytometric quantification) ([1]; single agent): 59.4 and 133 and 54.7 and 74.6 and 155
- CD69 expression in Th9 cells ([1]; EpA (10 µM) + Fatostatin (10 µM)): 54.9 and 46.3 and 45.8 and 49.3
- CD69 expression in Th9 cells ([1]; single agent, 10 µM): 41.4 and 40.9 (2×) and 41.7
- MitoTracker Deep Red ([2]; Figure 4M, individual replicates, (n = 5)): 2580000 and 2400000 and 2450000 and 2490000 and 2480000
- Mito tracker (flow cytometric quantification) ([2]; EpA + ERKin combination, individual replicates): 2055 and 2045 and 2104
- Mito tracker (flow cytometric quantification) ([2]; EpA + MEKin combination, individual replicates): 2331 and 2453 and 2355
- Mito tracker (flow cytometric quantification) [2, 4]: 1845 and 1728 and 1865
- mitochondrial membrane potential measured by MitoTracker staining ([2]; EpA + Fato combination, individual replicates): 1707 and 1737 and 1699
- mitochondrial membrane potential measured by MitoTracker staining [2, 4]: 1400 and 1434 and 1409
- mitochondrial membrane potential in Th9 cells ([2]; MigR1 vector, individual replicates): 5844 and 5817 and 5963 and 6149
- mitochondrial membrane potential in Th9 cells ([2]; Srebf1 (overexpressing SREBP1), individual replicates): 5503 and 5279 and 5218 and 5340
- mitochondrial membrane potential ([2]; MEK/ERK inhibition in EpA-treated Th9 cells, MitoTracker, result in words): paradoxical increase in mitochondrial membrane potential
- mitochondrial membrane potential ([2]; SREBP1 inhibition (fatostatin) in EpA-Th9, result in words): further augmented
- EpA-induced mitochondrial membrane potential upon SREBP1 overexpression ([2]; result in words): abolished
- mitochondrial integrity ([2]; result in words): improved mitochondrial integrity
- IL-9 production in human CD4⁺ T cells (flow cytometric analysis) ([3]; Day5): 43.3 and 42.8 and 42.9 and 42
- IL-9 production in human CD4⁺ T cells (flow cytometric analysis) ([3]; Day6): 34.5 and 32.5 and 32.7 and 34.1
- IL-9 expression, human Th9 ([3]; day 5 to day 6, result in words): significantly elevated IL-9 expression
- intracellular IL-9 expression in human Th9 cells ([3]; replicate 1): 22%
- intracellular IL-9 expression in human Th9 cells ([3]; replicate 2): 24.8%
- intracellular IL-9 expression in human Th9 cells ([3]; replicate 3): 22.1%
- intracellular IL-9 expression in human Th9 cells ([3]; replicate 4): 24.3%
